From patent US7842324B2 (Senomyx, Inc., priority 2005, dated 2010)

Tests used:
[1] = target: T1, hT1R2/hT1R3 sweet receptor expressed in HEK293 cell line (Homo sapiens, UniProt Q7RTX0+Q8TE23); experiment: In vitro hT1R2/hT1R3-HEK293 taste receptor activation assay (FLIPR); format: cell-based; conditions: read-out: EC50 for activation of a hT1R2/hT1R3 sweet receptor expressed in HEK293 cell line
T1 construct: expressed in transfected cells; host or cells: HEK293 derivative stably expressing Gα15 and hT1R2/hT1R3, clone S-9
T1 sequence (Q8TE23 20-839): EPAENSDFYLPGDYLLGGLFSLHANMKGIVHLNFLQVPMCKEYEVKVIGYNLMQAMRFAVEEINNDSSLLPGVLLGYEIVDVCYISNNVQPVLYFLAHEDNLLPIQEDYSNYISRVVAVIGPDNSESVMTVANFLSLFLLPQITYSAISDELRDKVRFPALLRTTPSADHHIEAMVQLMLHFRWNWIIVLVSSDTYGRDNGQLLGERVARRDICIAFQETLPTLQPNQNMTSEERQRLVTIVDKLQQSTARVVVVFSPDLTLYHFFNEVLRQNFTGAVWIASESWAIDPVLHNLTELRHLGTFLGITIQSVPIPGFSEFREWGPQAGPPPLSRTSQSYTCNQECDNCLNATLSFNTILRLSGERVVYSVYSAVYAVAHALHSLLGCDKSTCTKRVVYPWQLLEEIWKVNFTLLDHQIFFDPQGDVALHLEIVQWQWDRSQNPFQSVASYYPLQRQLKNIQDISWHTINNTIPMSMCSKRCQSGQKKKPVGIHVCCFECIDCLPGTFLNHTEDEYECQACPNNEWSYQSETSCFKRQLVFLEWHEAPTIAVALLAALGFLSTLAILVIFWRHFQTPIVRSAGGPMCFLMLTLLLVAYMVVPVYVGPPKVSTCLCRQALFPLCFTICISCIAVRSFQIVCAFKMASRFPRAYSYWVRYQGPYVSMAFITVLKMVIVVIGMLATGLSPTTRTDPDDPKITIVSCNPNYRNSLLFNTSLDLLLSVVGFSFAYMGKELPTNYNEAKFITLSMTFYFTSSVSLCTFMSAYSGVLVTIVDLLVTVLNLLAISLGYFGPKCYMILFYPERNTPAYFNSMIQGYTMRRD
T1 sequence (Q7RTX0 21-852): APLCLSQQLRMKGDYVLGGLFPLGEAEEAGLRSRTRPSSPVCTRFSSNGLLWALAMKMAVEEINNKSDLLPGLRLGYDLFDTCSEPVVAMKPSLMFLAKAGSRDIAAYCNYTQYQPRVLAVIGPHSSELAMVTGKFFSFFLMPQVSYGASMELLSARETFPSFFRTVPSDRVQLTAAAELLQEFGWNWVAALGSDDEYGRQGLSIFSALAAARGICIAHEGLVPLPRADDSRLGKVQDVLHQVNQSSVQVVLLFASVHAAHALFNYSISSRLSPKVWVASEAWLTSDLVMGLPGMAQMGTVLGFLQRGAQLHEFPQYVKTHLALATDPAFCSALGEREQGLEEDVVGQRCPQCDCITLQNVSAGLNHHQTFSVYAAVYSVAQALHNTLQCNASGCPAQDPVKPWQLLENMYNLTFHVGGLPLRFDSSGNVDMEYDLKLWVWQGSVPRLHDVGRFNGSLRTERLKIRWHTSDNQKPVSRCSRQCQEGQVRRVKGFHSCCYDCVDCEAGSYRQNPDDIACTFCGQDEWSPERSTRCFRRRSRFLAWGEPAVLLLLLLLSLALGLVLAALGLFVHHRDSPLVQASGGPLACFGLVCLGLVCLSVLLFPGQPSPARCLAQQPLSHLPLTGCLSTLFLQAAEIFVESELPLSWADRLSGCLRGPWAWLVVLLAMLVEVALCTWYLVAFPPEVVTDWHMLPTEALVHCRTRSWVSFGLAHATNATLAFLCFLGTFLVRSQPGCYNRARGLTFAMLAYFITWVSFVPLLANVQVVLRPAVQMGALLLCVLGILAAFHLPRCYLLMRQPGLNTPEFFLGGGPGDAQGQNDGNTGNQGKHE
Procedure, shortened: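 HEK293 cells stably expressing Gα15 and hT1R2/hT1R3 were loaded with Fluo-3AM (4 μM, 1 h, room temperature), then stimulated at room temperature in D-PBS. Peak fluorescence (ex 480/em 535 nm) was normalized to basal. Dose-responses were run in duplicate over 60 nM–30 μM, normalized to 400 mM D-fructose, and EC50 fitted by free-Hill non-linear regression.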

[2] = system: Human Panelists; experiment: Difference from Reference human taste test (Table B); format: in vivo; conditions: 5 μM compound + 6% fructose/glucose, pH 7.1
Excerpt: Purpose: To determine how the intensity of a test sample of an experimental compound differs from that of a reference sample in terms of sweetness. This type of study requires a larger number of evaluations in order to obtain statistically significant data, so the test may be repeated with the same or additional panelists.
Subjects rate the difference in intensity of the test sample compared to the reference sample for the key attribute on a scale of −5 (much less sweet than the reference) to +5 (much sweeter than the reference). A score of 0 indicates the test sample is equally as sweet as the reference.
Procedure: Ten or more Subjects are used for the Difference from Reference tests. Subjects have been previously familiarized with the key attribute taste and are trained to use the −5 to +5 scale. Subjects refrain from eating or drinking (except water) for at least 1 hour prior to the test. Subjects eat a cracker and rinse with water four times to clean the mouth. […]
The scores for each test are averaged across Subjects and standard error is calculated. Panel accuracy can be determined using the score from the blind reference test. […]

EC50 [1]: 850 nM
Compound: Cc1cscc1-c1ccc(C(C)(C)C(=O)NCC(C)C)cc1 [Compound 2, N-Isobutyl-2-methyl-2-(4-(4-methylthiophen-3-yl)phenyl)propanamide]
Perceived Equivalent Sweet Solution [2]: ≥ 9% fructose/glucose
